# Results: paper PMC4461042 (Structure (London, England : 1993), 2015)
# Like-named read-outs stand apart in the source and are kept apart here.
# How the values were obtained:
# mice = conditions: in vivo; cited from earlier work
# human neuronal α7 nAChR [1] = target: T1, human neuronal α7 nAChR (Homo sapiens, UniProt P36544); format: cell-based
# full-length α7 nAChR = full-length α7 nAChR (Homo sapiens, UniProt P36544); format: binding
# full-length α4β2 nAChR = full-length α4β2 nAChR (Homo sapiens, UniProt P17787+P43681); format: binding
# full-length α4β2 nAChR, sequence (P17787 26-502): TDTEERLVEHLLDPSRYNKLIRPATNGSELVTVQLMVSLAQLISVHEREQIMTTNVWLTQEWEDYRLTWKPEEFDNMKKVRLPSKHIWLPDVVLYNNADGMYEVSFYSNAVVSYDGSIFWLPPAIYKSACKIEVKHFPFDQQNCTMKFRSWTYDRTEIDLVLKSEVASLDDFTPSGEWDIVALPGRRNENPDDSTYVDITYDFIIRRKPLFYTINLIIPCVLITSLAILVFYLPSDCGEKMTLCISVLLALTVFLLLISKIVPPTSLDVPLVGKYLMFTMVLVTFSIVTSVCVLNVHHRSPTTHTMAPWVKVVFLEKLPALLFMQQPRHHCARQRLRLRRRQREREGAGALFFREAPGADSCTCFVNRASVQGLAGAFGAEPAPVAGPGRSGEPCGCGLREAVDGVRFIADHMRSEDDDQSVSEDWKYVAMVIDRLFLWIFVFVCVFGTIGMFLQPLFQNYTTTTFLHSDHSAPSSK
# full-length α4β2 nAChR, sequence (P43681 29-627): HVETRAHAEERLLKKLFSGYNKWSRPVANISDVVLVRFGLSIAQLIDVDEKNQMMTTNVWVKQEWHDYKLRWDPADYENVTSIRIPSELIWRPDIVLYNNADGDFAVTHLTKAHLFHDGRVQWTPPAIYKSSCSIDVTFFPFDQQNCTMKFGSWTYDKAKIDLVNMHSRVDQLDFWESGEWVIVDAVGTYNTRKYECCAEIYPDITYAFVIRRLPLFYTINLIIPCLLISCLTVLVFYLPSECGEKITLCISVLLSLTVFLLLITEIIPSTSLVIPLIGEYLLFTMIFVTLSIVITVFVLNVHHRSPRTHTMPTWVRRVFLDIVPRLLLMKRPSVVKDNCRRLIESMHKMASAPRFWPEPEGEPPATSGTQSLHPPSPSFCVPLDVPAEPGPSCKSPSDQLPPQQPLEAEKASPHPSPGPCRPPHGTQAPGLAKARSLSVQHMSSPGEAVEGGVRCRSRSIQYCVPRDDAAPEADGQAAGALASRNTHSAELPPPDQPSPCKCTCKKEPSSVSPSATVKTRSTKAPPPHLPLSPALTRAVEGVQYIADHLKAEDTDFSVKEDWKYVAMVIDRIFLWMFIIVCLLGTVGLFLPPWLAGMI
# L-AChBP = L-AChBP (Lymnaea stagnalis, UniProt P58154); format: binding
# L-AChBP, sequence (P58154 20-229 limits assumed): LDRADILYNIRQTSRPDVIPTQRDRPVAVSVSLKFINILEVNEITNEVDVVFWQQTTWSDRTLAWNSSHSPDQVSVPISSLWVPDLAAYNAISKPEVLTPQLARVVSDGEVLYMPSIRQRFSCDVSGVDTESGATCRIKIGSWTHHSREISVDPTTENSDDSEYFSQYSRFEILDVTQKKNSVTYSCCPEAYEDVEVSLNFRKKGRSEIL
# A-AChBP = A-AChBP (Aplysia californica, UniProt Q8WSF8); format: binding; conditions: for Kd: read-out: Kd/calc
# A-AChBP, sequence (Q8WSF8 18-236 limits assumed): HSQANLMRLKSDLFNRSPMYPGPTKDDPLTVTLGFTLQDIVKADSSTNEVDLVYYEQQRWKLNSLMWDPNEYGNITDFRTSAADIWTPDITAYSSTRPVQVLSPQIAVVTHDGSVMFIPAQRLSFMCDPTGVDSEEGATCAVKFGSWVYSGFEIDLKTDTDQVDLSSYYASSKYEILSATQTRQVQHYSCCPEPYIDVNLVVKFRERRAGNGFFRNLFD
# human neuronal α7 nAChR [2] = target: T1, human neuronal α7 nAChR; conditions: read-out: IC50, inhibition of ACh-evoked nicotinic currents; cited from earlier work
# [3] = target: T2, human neuronal α4β2 nAChR (Homo sapiens, UniProt P17787+P43681); conditions: read-out: IC50, inhibition of ACh-evoked nicotinic currents; cited from earlier work
# T2 sequence (P43681 29-627): as the sequence (P43681 29-627) above
# T2 sequence (P17787 26-502): as the sequence (P17787 26-502) above
# [4] = tested on: muscle-type α1_2βγδ nAChR; conditions: read-out: IC50, inhibition of ACh-evoked nicotinic currents; cited from earlier work
# α4β2 nAChR [5] = target: T3, α4β2 nAChR (Homo sapiens, UniProt P17787+P43681); conditions: cited from earlier work
# T3 sequence (P43681 29-627): as the sequence (P43681 29-627) above
# T3 sequence (P17787 26-502): as the sequence (P17787 26-502) above
# α3β2 nAChR [6] = target: T4, α3β2 nAChR (Homo sapiens, UniProt P17787+P32297); conditions: cited from earlier work
# T4 sequence (P17787 26-502): as above
# T4 sequence (P32297 32-505): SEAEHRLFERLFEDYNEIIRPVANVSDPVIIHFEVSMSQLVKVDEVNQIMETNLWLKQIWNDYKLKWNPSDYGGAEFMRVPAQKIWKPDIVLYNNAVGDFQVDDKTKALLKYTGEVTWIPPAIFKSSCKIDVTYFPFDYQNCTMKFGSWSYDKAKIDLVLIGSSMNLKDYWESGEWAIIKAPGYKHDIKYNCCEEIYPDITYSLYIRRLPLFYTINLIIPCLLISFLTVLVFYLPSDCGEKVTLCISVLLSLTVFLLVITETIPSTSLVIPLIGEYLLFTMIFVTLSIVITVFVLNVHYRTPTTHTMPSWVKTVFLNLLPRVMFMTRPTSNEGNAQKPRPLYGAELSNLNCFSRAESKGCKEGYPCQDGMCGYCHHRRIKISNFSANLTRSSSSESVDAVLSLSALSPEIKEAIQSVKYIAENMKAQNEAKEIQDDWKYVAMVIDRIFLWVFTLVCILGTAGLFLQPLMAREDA
# [7] = target: T2, human neuronal α4β2 nAChR; format: cell-based; conditions: read-out: IC50, inhibition of ACh-evoked nicotinic currents
# [8] = tested on: muscle-type α1_2βγδ nAChR; format: cell-based, Torpedo; conditions: read-out: IC50, inhibition of ACh-evoked nicotinic currents
# α4β2 nAChR [9] = target: T3, α4β2 nAChR; format: binding
# α3β2 nAChR [10] = target: T4, α3β2 nAChR; format: binding
# A-AChBP/α7 chimera III = format: binding; conditions: read-out: Kd/equ
# [11] = read-out: Kd/equ, competitive component
# [12] = read-out: Kd/equ, non-competitive component
# T1 sequence (P36544 23-502): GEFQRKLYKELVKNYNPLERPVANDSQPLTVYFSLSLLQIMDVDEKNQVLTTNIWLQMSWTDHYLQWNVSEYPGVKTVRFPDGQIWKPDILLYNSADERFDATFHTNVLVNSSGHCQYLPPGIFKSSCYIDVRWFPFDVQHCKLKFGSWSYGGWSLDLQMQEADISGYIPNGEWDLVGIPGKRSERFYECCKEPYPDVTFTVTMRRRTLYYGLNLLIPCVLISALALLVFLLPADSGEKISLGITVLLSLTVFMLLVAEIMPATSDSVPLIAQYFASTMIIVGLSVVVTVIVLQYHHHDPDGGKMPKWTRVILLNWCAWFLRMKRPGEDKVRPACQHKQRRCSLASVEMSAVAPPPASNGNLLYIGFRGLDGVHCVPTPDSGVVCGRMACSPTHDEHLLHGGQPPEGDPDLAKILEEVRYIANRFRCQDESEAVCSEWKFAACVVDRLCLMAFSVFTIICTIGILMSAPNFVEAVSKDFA
# full-length α7 nAChR, sequence (P36544 23-502): as above
Compound,Kd (full-length α7 nAChR; [11]),Kd (full-length α7 nAChR; [12]),Kd (full-length α4β2 nAChR; [11]),Kd (full-length α4β2 nAChR; [12]),koff (L-AChBP),kon (L-AChBP),Kd (L-AChBP; read-out: Kd/calc),koff (A-AChBP),kon (A-AChBP),Kd (A-AChBP),IC50 (human neuronal α7 nAChR [2]),also measured
C=C1CCCC2=NC[C@H](C)[C@@H](C)C[C@@]23CCC(C(=O)O)=C[C@@H]3[C@@H]2O[C@]3(C[C@H]4CCC[C@@]5(CC[C@@]6(O[C@@H](CC[C@@]6(C)O)C1)O5)O4)C[C@@H](C)[C@@H](O)[C@H]2O3 [(−)-PnTx-A],–,–,–,–,–,–,–,–,–,–,–,activity in mouse assays (mice): inactive
"C=C1CCCC2=NC[C@H](C)[C@@H](C)C[C@@]23CCC(C(=O)O)=C[C@@H]3[C@@H]2O[C@]3(C[C@H]4CCC[C@@]5(CC[C@@]6(O[C@@H](CC[C@@]6(C)O)C1)O5)O4)C[C@@H](C)[C@@H](O)[C@H]2O3 [PnTx-A, pinnatoxin-A]",0.18 ± 0.1 nM,2.6 ± 1.3 nM,95 ± 11 nM,199 ± 1 nM,31.6 ± 7.9 ^a min^−1,0.21 ± 0.09 ^a 10^9 M^−1min^−1,170 ± 77 nM,< 0.06 ^b min^−1,1.4 ± 0.7 ^a 10^9 M^−1min^−1,< 0.05 nM,0.107 nM,greater potency (IC50) toward α7 than α4β2 (human neuronal α7 nAChR [1]): ~ 300 fold; IC50 [3]: 30.4 nM; IC50 [4]: 5.53 nM; Ki (α4β2 nAChR [5]): 15.6 ± 5.2 nM; Ki (α3β2 nAChR [6]): 9.4 ± 1.9 nM
"C=CC1=C[C@@H]2[C@@H]3O[C@]4(C[C@H]5CCC[C@@]6(CC[C@@]7(O[C@@H](CC[C@@]7(C)O)CC(=C)CCCC7=NC[C@H](C)[C@@H](C)C[C@@]72CC1)O6)O5)C[C@@H](C)[C@@H](O)[C@H]3O4 [PnTx-G, pinnatoxin-G]",34 ± 4 nM,270 ± 50 nM,99 ± 50 nM,87 ± 62 nM,60 ± 30 ^b min^−1,0.17 ± 0.01 ^b 10^9 M^−1min^−1,360 ± 210 nM,0.78 ± 0.06 ^b min^−1,0.91 ± 0.03 ^b 10^9 M^−1min^−1,0.86 ± 0.09 nM,5.06 nM,lower potency towards α7 compared with PnTx-A (human neuronal α7 nAChR [1]): ~ 50 fold; IC50 [7]: 4.9 nM; IC50 [8]: 3.82 nM; Ki (α4β2 nAChR [9]): 101 ± 30 nM; Ki (α3β2 nAChR [10]): 63.9 ± 1.2 nM; Kd (L-AChBP; read-out: Kd/equ): 315 nM; Kd (A-AChBP/α7 chimera III): 174 ± 19 nM
